Test results taken from ChEMBL document CHEMBL1153216, “Parallel synthesis of N-biaryl quinolone carboxylic acids as selective M(1) positive allosteric modulators” (Bioorg Med Chem Lett, 2010).

Tests used:
[1] = target: T1, Muscarinic acetylcholine receptor M1 (Homo sapiens) (UniProt P11229); test: Allosteric modulation of human muscarinic M1 receptor expressed in CHO cells assessed as effect on acetylcholine-induced calcium mobilization by FLIPR assay; format: functional, cell-based
T1 sequence (whole entry): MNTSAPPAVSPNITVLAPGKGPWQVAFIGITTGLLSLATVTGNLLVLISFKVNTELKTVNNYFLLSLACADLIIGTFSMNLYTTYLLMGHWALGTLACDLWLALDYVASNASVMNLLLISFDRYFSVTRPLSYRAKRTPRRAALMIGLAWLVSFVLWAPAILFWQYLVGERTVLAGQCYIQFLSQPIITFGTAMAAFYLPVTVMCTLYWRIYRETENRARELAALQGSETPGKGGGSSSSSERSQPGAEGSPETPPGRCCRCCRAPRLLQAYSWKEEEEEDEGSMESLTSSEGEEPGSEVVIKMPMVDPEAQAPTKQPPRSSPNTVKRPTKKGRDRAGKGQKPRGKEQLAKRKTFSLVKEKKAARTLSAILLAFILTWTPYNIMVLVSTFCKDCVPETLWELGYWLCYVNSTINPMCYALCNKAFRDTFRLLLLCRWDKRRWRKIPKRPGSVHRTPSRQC

[2] = Plasma protein binding in rat serum by equilibrium dialysis method
[3] = Plasma protein binding in human serum by equilibrium dialysis method
[4] = Drug level in rat cerebrospinal fluid at 10 mg/kg, po after 1 hr

Row | Compound | IP [1] | further results
1 | CN(C)c1cc(-c2ccc(Cn3cc(C(=O)O)c(=O)c4cccc(F)c43)cc2)ccn1 | 45 nM | –
2 | O=C(O)c1cn(Cc2ccc(-c3ccccc3)cc2)c2ccccc2c1=O | 210 nM | –
3 | CS(=O)(=O)c1ccc(Cn2cc(C(=O)O)c(=O)c3cccc(F)c32)cc1 | 13000 nM | –
4 | O=C(O)c1cn(Cc2ccc(-c3cn[nH]c3)cc2F)c2ccccc2c1=O | 56 nM | –
5 | O=C(O)c1cn(Cc2c(F)cccc2F)c2cccc(F)c2c1=O | 1300 nM | –
6 | O=C(O)c1cn(Cc2ccc(-c3cccc4cccnc34)cc2)c2cccc(F)c2c1=O | 190 nM | fraction unbound [2]: 0.015
7 | O=C(O)c1cn(CCc2ccccc2)c2c(F)cccc2c1=O | 24000 nM | –
8 | CN(C)c1cccc(-c2ccc(Cn3cc(C(=O)O)c(=O)c4cccc(F)c43)cc2)c1 | 94 nM | –
9 | Nc1cccc(-c2ccc(Cn3cc(C(=O)O)c(=O)c4cccc(F)c43)cc2)c1 | 210 nM | –
10 | O=C(O)c1cn(Cc2ccccc2)c2ccccc2c1=O | 1700 nM | –
11 | COc1cccc(Cn2cc(C(=O)O)c(=O)c3cccc(F)c32)c1 | 2700 nM | –
12 | CS(=O)(=O)c1ccc(Cn2cc(C(=O)O)c(=O)c3ccccc32)cc1 | 18000 nM | –
13 | O=C(O)c1cn(C2(c3ccccc3)CC2)c2ccccc2c1=O | 13000 nM | –
14 | COc1cccc(Cn2cc(C(=O)O)c(=O)c3c(F)ccc(F)c32)c1 | 4200 nM | –
15 | O=C(O)c1cn(Cc2cccc(OC(F)(F)F)c2)c2c(F)ccc(F)c2c1=O | 3200 nM | –
16 | NC(=O)c1cccc(Cn2cc(C(=O)O)c(=O)c3ccccc32)c1 | 4300 nM | –
17 | O=C(O)c1cn(Cc2ccc(OC(F)(F)F)cc2)c2cccc(F)c2c1=O | 2800 nM | –
18 | O=C(O)c1cn(Cc2ccc(-c3ccccc3)cc2)c2c(F)ccc(F)c2c1=O | 270 nM | –
19 | O=C(O)c1cn(Cc2ccc(-c3ccccc3)cc2F)c2ccccc2c1=O | 50 nM | –
20 | O=C(O)c1cn(Cc2ccc(C(F)(F)F)cc2)c2cccc(F)c2c1=O | 1500 nM | –
21 | O=C(O)c1cn(Cc2c(F)cccc2F)c2c(F)ccc(F)c2c1=O | 610 nM | –
22 | O=C(O)c1cn(Cc2ccc(C3CC3)cc2)c2cccc(F)c2c1=O | 830 nM | –
23 | O=C(O)c1cn(Cc2cccc(C(F)(F)F)c2)c2c(F)cccc2c1=O | 2700 nM | –
24 | COc1ccc(Cn2cc(C(=O)O)c(=O)c3c(F)cccc32)cc1 | 2000 nM | –

Row | Compound | IP [1] | further results
25 | COc1cccc(Cn2cc(C(=O)O)c(=O)c3ccccc32)c1 | 2800 nM | –
26 | O=C(O)c1cn(Cc2ccc(C(F)(F)F)cc2)c2c(F)cccc2c1=O | 980 nM | –
27 | COc1ncc(-c2ccc(Cn3cc(C(=O)O)c(=O)c4ccccc43)c(F)c2)cn1 | 510 nM | –
28 | Cn1cc(-c2ccc(Cn3cc(C(=O)O)c(=O)c4ccccc43)c(F)c2)cn1 | 37 nM | –
29 | O=C(O)c1cn(Cc2cccc(OC(F)(F)F)c2)c2cccc(F)c2c1=O | 5900 nM | –
30 | O=C(O)c1cn(Cc2ccc(-c3ccccc3)cc2Cl)c2ccccc2c1=O | 120 nM | –
31 | COc1ccc(-c2ccc(Cn3cc(C(=O)O)c(=O)c4cccc(F)c43)cc2)cn1 | 63 nM | –
32 | O=C(O)c1cn(Cc2ccccc2)c2c(F)ccc(F)c2c1=O | 3000 nM | –
33 | O=C(O)c1cn(Cc2ccc(-c3cccc4[nH]ccc34)cc2)c2c(F)cccc2c1=O | 76 nM | –
34 | O=C(O)c1cn(C2(c3ccccc3)CC2)c2c(F)cccc2c1=O | 22000 nM | –
35 | O=C(O)c1cn(Cc2ccccc2C(F)(F)F)c2ccccc2c1=O | 4300 nM | –
36 | O=C(O)c1cn(Cc2ccc(C(F)(F)F)cc2)c2c(F)ccc(F)c2c1=O | 760 nM | –
37 | O=C(O)c1cn(Cc2ccc(-c3cn[nH]c3)cc2F)c2cccc(F)c2c1=O | 41 nM | fraction unbound [3]: 0.044; fraction unbound [2]: 0.02
38 | O=C(O)c1cn(Cc2ccccc2C(F)(F)F)c2c(F)ccc(F)c2c1=O | 2300 nM | –
39 | O=C(O)c1cn(Cc2ccc(Br)cc2F)c2cccc(F)c2c1=O | 1100 nM | –
40 | O=C(O)c1cn(Cc2ccc(-c3ccccc3)cc2)c2cccc(F)c2c1=O | 84 nM | –
41 | O=C(O)c1cn(Cc2cccc(OC(F)(F)F)c2)c2c(F)cccc2c1=O | 3600 nM | –
42 | O=C(O)c1cn(Cc2ccccc2C(F)(F)F)c2c(F)cccc2c1=O | 6900 nM | –
43 | COc1ccc(Cn2cc(C(=O)O)c(=O)c3cccc(F)c32)cc1 | 1100 nM | –
44 | N#Cc1ccccc1-c1ccc(Cn2cc(C(=O)O)c(=O)c3cccc(F)c32)cc1 | 540 nM | –
45 | O=C(O)c1cn(Cc2ccc(Br)cc2F)c2c(F)cccc2c1=O | 1200 nM | –
46 | O=C(O)c1cn(Cc2ccc(-c3cccnc3)cc2)c2cccc(F)c2c1=O | 61 nM | fraction unbound [3]: 0.055; fraction unbound [2]: 0.051; concentration at 1 h [4]: 24 nM
47 | O=C(O)c1cn(Cc2c(F)cccc2F)c2c(F)cccc2c1=O | 1000 nM | –
48 | O=C(O)c1cn(Cc2ccc(C3CC3)cc2)c2c(F)cccc2c1=O | 1200 nM | –

Row | Compound | IP [1] | further results
49 | CS(=O)(=O)c1ccc(Cn2cc(C(=O)O)c(=O)c3c(F)ccc(F)c32)cc1 | 16000 nM | –
50 | O=C(O)c1cn(Cc2ccc(-c3cccc(CO)n3)cc2)c2c(F)cccc2c1=O | 250 nM | fraction unbound [3]: 0.058; fraction unbound [2]: 0.022
51 | O=C(O)c1cn(Cc2ccc(OC(F)(F)F)cc2)c2c(F)ccc(F)c2c1=O | 1300 nM | –
52 | Nc1ccc(-c2ccc(Cn3cc(C(=O)O)c(=O)c4cccc(F)c43)cc2)cn1 | 130 nM | –
53 | N#Cc1ccccc1-c1ccc(Cn2cc(C(=O)O)c(=O)c3c(F)cccc32)cc1 | 400 nM | –
54 | COc1cccc(Cn2cc(C(=O)O)c(=O)c3c(F)cccc32)c1 | 2100 nM | –
55 | O=C(O)c1cn(Cc2ccc(OC(F)(F)F)cc2)c2c(F)cccc2c1=O | 2100 nM | –
56 | NC(=O)c1cccc(Cn2cc(C(=O)O)c(=O)c3cccc(F)c32)c1 | 3400 nM | –
57 | O=C(O)c1cn(Cc2cccc(C(F)(F)F)c2)c2c(F)ccc(F)c2c1=O | 1600 nM | –
58 | O=C(O)c1cn(Cc2cccc(C(F)(F)F)c2)c2ccccc2c1=O | 7200 nM | –
59 | O=C(O)c1cn(Cc2cccc(OC(F)(F)F)c2)c2ccccc2c1=O | 4100 nM | –
60 | CN(C)Cc1cccc(-c2ccc(Cn3cc(C(=O)O)c(=O)c4cccc(F)c43)cc2)c1 | 220 nM | –
61 | CNc1ccc(-c2ccc(Cn3cc(C(=O)O)c(=O)c4cccc(F)c43)cc2)cn1 | 48 nM | –
62 | O=C(NCCO)c1cccc(-c2ccc(Cn3cc(C(=O)O)c(=O)c4cccc(F)c43)cc2)c1 | 99 nM | –
63 | O=C(O)c1cn(Cc2ccc(Br)cc2F)c2c(F)ccc(F)c2c1=O | 860 nM | –
64 | O=C(O)c1cn(Cc2ccc(OC(F)(F)F)cc2)c2ccccc2c1=O | 1800 nM | –
65 | O=C(O)c1cn(Cc2ccccc2)c2c(F)cccc2c1=O | 4000 nM | –
66 | O=C(NC1CC1)c1ccc(-c2ccc(Cn3cc(C(=O)O)c(=O)c4cccc(F)c43)cc2)cc1 | 110 nM | –
67 | O=C(O)c1cn(Cc2ccc(-c3ccncc3)cc2)c2c(F)cccc2c1=O | 100 nM | –
68 | CN1CCN(c2ccc(-c3ccc(Cn4cc(C(=O)O)c(=O)c5cccc(F)c54)cc3)cn2)CC1 | 51 nM | –
69 | O=C(O)c1cn(CCc2ccccc2)c2ccccc2c1=O | > 100000 nM | –
70 | O=C(O)c1cn(Cc2ccc(-c3ccccc3)cc2)c2c(F)cccc2c1=O | 380 nM | –
71 | O=C(O)c1cn(Cc2ccc(-c3cncnc3)cc2)c2c(F)cccc2c1=O | 830 nM | –
